According to patent US20250084453A1, “SYSTEMS, COMPOSITIONS AND METHODS FOR IDENTIFYING E3 LIGASE SUBSTRATES BY UBIQUITIN BIOTINYLATION” (The Broad Institute, Inc., priority 2022, published 2025):

Tested on: CRBN E3 ligase
Test: MS comparison of loss-of-function CRBN-BirA mutants (D249Y, W386A) with WT CRBN-BirA under CC-885
Assay type: cell-based, human
Conditions: CC-885 1 μM, 1 hour; D249Y and W386A; FIGS. 16A, 16B
Experimental: Experiments were performed to identify substrates of an E3 ligase using CRBN as a representative E3 ligase. The experiments compared loss-of-function mutants of an E3 ligase (e.g., CRBN E3 ligase) to the wildtype (WT) ligase. FIGS. 16A and 16B show the results of a mass spectrometry experiment in which protein substrates susceptible to CC-885 induced ubiquitination were identified. These experiments were performed in HEK293T^CRBN−/− cells transiently expressing A3-HA-Ub and either WT CRBN-BirA or CRBN-BirA mutant D249Y (FIG. 16A) or CRBN-BirA mutant W386A (FIG. 16B). Compared with CRBN(WT), CRBN(D249Y) had decreased association with the CRL4 complex, while CRBN(W386A) had decreased affinity for CC-885. Both mutants were expected to have a diminished ability to ubiquitinate CC-885-induced substrates. While cultured in biotin-free medium, the cells were pre-treated with carfilzomib (carf; 0.4 μM) for 1 hour, and then were treated with the IMiD derivative CC-885 (1 μM) for another hour. […] Enrichment of biotinylated species by streptavidin-coated beads, protein digestion, and protein identification and quantification by mass spectrometry were performed exactly as described in Example 3 and 4. […]

Compound: Cc1ccc(NC(=O)NCc2ccc3c(c2)CN(C2CCC(=O)NC2=O)C3=O)cc1Cl (stereo not shown) [CC-885]
- Induced ubiquitinated substrates revealed by decreased biotinylation with CRBN-BirA mutants versus WT: GSPT1, GSPT2, VCL and CSNK1A1
